Each structure is given as a SMILES string.

The values below come from patent US20260284018A1, “DUAL INHIBITORS OF DYRK1A AND 5-HT2 FOR TREATING A BRAIN DISORDER” (THE REGENTS OF THE UNIVERSITY OF CALIFORNIA, priority 2023, published 2026).

In data set [1] the target is T1, human recombinant 5-HT2CR (Homo sapiens, UniProt P28335).
T1 construct: host or cells: CHO-K1
T1 sequence (P28335 33-458): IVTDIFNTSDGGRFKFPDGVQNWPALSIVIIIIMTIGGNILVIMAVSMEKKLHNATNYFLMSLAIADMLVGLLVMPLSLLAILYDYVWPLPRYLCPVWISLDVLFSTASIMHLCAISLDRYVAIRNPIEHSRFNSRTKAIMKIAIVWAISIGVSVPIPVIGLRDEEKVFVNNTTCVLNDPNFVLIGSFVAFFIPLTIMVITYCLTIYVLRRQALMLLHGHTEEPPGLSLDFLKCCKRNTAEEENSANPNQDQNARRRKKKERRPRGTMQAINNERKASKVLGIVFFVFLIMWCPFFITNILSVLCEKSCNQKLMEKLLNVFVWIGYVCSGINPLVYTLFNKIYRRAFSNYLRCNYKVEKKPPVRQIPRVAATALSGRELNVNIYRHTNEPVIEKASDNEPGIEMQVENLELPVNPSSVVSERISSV
Nature of the data set: IPOne HTRF assay, 5-HT2CR. It is filed as cell-based. The note with it: for antagonist activity at 5-HT2C, IP-One / selectivity of antagonism, 5-HT2C versus 5-HT2A, IP-One: antagonist mode. Here is the method:
IPOne Assays. The 5-HT2AR and 5-HT2CR IPOne HTRF assays were performed at Epics Therapeutics S.A. (Belgium, FAST-0505I) using conventional methods. Briefly, CHO-K1 cells expressing human recombinant 5-HT2AR or 5-HT2CR grown to mid-log phase in culture media without antibiotics were detached with PBS-EDTA, centrifuged, and resuspended in medium without antibiotics buffer. Then, 20,000 cells were distributed in a 96-well plate and incubated overnight at 37° C. with 5% CO2. For agonist testing, the medium was removed and 20 μL of assay buffer plus 20 μL of test compound or reference agonist (α-Me-5-HT) was added to each well. The plate was incubated for 60 min at 37° C. with 5% CO2. For antagonist testing, the medium was removed and 20 μL of assay buffer plus 20 μL of test compound or reference antagonist (ketanserin) was added to each well. The plate was incubated for 60 min at 37° C. with 5% CO2. After addition of the lysis buffer containing IP1-d2 and anti-IP1 cryptate detection reagents, plates were incubated for 1 h at room temperature and fluorescence ratios were measured according to the manufacturer's specifications using the HTRF kit.

Data set [2] relates to C57BL/6J mice. Nature of the data set: Head-twitch response. It is filed as in vivo. Particulars: for head-twitch response: intraperitoneal, up to 30 mg/kg. Here is the method:
(§1) Animals. Female C57BL/6J mice used in the head twitch response and locomotion assays, and Sprague Dawley dams used to generate embryonic cultures were obtained from Jackson Laboratory (Sacramento, CA). Mice were housed in a temperature- and humidity-controlled room maintained on a 12 h light/dark cycle in groups of four to five (same sex). Animals weighed between 17 and 30 g at the time of the experiments. All experimental procedures involving rodents were approved by the UC Davis Institutional Animal Care and Use Committee (IACUC) and adhered to principles described in the National Institutes of Health Guide for the Care and Use of Laboratory Animals. The University of California, Davis is accredited by the Association for Assessment and Accreditation of Laboratory Animal Care International (AAALAC).
Head-Twitch Response and Locomotion. Mice (9-10 weeks old) were injected intraperitoneally with compounds dissolved in 10% Kolliphor® EL (Sigma) and 10% DMSO in 0.9% saline (injection volume 5 mL/kg) or vehicle, placed in an empty cage, and filmed for 10 min. Locomotion was quantified using ANYmaze Video Tracking System, version 7.07 (Stoelting Co.). After 10 min, mice were then injected with 5-MeO-DMT dissolved in 0.9% saline (10 mg/kg, injection volume 5 mL/kg) or vehicle and filmed for 20 min. Cages were cleaned with 70% ethanol between experiments. […] The last 20 min of each video were scored by one trained observer blinded to the treatment conditions.

The subject of data set [3] is C57BL/6J mice. Briefly: Locomotion in open field chamber. The data set is classed as in vivo. Particulars: doses up to 30 mg/kg. Here is the method:
as §1
Head-Twitch Response and Locomotion. Mice (9-10 weeks old) were injected intraperitoneally with compounds dissolved in 10% Kolliphor® EL (Sigma) and 10% DMSO in 0.9% saline (injection volume 5 mL/kg) or vehicle, placed in an empty cage, and filmed for 10 min. Locomotion was quantified using ANYmaze Video Tracking System, version 7.07 (Stoelting Co.). […] The last 20 min of each video were scored by one trained observer blinded to the treatment conditions.

Another data set deals with T2, ABL1-nonphosphorylated (Homo sapiens, UniProt P00519).
T2 construct: purchased Eurofins DiscoverX
T2 sequence (P00519 whole entry): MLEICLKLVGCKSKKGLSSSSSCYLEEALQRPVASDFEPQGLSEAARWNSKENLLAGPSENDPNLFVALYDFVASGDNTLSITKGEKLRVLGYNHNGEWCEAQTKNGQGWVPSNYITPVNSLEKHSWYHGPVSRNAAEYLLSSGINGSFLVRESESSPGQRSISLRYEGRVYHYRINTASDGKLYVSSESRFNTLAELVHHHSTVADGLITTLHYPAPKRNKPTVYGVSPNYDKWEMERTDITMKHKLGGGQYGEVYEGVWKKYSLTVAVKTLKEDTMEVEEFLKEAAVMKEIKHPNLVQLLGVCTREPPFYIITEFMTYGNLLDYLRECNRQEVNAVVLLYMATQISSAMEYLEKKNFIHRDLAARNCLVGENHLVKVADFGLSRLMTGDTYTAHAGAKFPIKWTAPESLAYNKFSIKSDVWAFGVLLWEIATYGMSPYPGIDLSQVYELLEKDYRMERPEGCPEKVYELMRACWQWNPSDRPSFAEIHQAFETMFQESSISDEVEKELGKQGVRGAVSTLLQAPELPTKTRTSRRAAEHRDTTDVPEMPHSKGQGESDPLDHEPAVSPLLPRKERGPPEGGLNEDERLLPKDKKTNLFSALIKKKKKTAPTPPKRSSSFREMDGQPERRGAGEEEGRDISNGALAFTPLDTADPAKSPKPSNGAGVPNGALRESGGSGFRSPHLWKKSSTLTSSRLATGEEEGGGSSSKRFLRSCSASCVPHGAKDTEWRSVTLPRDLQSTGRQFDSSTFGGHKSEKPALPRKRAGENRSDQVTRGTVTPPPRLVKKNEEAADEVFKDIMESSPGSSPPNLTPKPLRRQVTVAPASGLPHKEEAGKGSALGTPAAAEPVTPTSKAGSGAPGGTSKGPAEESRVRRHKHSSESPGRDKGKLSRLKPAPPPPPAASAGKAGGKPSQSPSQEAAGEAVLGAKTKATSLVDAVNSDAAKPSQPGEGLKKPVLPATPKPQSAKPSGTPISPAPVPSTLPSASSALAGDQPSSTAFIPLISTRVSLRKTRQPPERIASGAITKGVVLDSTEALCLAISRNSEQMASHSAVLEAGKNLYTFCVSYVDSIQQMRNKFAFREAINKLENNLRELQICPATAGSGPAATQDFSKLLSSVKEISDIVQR
The note with it: 10 μM; cited from earlier work.

A further data set concerns the target T3, ADCK3 (Homo sapiens, UniProt Q8NI60).
T3 construct: purchased Eurofins DiscoverX
The note with it: 10 μM; cited from earlier work.

Another data set concerns the target T4, AXL (Homo sapiens, UniProt P30530).
T4 construct: purchased Eurofins DiscoverX
Particulars: 10 μM; cited from earlier work.

A further data set has as its target T5, BRAF (Homo sapiens, UniProt P15056).
T5 construct: purchased Eurofins DiscoverX
The note with it: 10 μM; cited from earlier work.

A further data set has as its target T6, FLT3 (Homo sapiens, UniProt P36888).
T6 construct: purchased Eurofins DiscoverX
The note with it: 10 μM; cited from earlier work.

A further data set concerns the target T7, GSK3B (Homo sapiens, UniProt P49841).
T7 construct: purchased Eurofins DiscoverX
Particulars: 10 μM; cited from earlier work.

A further data set addresses T8, INSR (Homo sapiens, UniProt P06213).
T8 construct: purchased Eurofins DiscoverX
The note with it: 10 μM; cited from earlier work.

The next data set concerns the target T9, JNK3 (Homo sapiens, UniProt P53779).
T9 construct: purchased Eurofins DiscoverX
Particulars: 10 μM; cited from earlier work.

Another data set addresses T10, MEK2 (Homo sapiens, UniProt P36507).
T10 construct: purchased Eurofins DiscoverX (KINOMEscan scanEDGE service)
The note with it: 10 μM; cited from earlier work.

A further data set addresses T11, MET (Homo sapiens, UniProt P08581).
T11 construct: purchased Eurofins DiscoverX (KINOMEscan scanEDGE service)
Particulars: 10 μM; cited from earlier work.

Another data set has as its target T12, MKNK1 (Homo sapiens, UniProt Q9BUB5).
T12 construct: purchased Eurofins DiscoverX (KINOMEscan scanEDGE service)
The note with it: 10 μM; cited from earlier work.

The target in a further data set is T13, p38-beta (Homo sapiens, UniProt Q15759).
T13 construct: purchased Eurofins DiscoverX (KINOMEscan scanEDGE service)
T13 sequence (Q15759 whole entry): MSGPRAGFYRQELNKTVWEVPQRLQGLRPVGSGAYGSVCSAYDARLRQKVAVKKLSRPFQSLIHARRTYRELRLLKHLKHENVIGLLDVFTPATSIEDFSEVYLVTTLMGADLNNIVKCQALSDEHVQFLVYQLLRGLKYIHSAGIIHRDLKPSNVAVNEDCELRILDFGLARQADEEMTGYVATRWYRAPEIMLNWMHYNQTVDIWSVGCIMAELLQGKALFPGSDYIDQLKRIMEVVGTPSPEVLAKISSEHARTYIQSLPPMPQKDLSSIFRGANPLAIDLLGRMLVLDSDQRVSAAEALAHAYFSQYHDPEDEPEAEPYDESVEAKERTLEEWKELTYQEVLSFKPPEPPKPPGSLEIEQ
Particulars: 10 μM; cited from earlier work.

A further data set addresses T14, RIOK2 (Homo sapiens, UniProt Q9BVS4).
T14 construct: purchased Eurofins DiscoverX KINOMEscan scanEDGE
The note with it: 10 μM; cited from earlier work.

The target in data set [4] is T15, RSK2(Kin.Dom.1-N-terminal) (Homo sapiens, UniProt P51812).
T15 construct: RSK2(Kin.Dom.1-N-terminal); purchased Eurofins DiscoverX KINOMEscan scanEDGE
The note with it: 10 μM; cited from earlier work.

Data set [5] has as its target T16, TYK2(JH1domain-catalytic) (Homo sapiens, UniProt P29597).
T16 construct: TYK2(JH1domain-catalytic); purchased Eurofins DiscoverX KINOMEscan scanEDGE
The note with it: 10 μM; cited from earlier work.

The next data set has as its target T17, ZAP70 (Homo sapiens, UniProt P43403).
T17 construct: purchased Eurofins DiscoverX KINOMEscan scanEDGE
Particulars: 10 μM; cited from earlier work.

T4 sequence (P30530 26-894): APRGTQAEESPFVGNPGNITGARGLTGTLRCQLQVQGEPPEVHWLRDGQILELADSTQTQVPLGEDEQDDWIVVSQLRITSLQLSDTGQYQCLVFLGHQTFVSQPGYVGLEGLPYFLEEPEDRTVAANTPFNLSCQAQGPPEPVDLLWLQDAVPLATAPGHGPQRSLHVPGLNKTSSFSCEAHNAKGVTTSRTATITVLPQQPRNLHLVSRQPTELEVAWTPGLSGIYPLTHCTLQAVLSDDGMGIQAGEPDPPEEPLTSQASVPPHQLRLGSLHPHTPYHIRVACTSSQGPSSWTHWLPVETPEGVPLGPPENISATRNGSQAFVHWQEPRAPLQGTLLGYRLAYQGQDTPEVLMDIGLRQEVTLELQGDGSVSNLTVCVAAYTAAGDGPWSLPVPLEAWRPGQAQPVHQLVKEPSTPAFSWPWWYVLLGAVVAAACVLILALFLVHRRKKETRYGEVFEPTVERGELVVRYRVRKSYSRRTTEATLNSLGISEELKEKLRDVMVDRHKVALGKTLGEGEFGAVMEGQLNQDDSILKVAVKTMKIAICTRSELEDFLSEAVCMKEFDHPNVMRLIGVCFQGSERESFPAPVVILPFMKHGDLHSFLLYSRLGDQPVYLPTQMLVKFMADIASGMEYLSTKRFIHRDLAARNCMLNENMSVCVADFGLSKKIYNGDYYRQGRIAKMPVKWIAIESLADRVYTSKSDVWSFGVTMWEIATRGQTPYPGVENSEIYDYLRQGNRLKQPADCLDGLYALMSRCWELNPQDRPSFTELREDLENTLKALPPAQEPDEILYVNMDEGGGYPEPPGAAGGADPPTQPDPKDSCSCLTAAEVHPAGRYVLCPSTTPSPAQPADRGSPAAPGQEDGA
T16 sequence (P29597 897-1176 limits assumed): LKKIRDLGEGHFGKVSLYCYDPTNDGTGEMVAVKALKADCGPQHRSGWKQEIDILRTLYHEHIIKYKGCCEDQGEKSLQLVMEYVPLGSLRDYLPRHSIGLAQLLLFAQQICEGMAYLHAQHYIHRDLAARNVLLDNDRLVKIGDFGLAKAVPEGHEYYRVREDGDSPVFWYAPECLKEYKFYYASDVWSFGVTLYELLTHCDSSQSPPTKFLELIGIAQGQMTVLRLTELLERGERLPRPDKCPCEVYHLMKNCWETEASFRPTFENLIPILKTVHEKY
T17 sequence (P43403 whole entry): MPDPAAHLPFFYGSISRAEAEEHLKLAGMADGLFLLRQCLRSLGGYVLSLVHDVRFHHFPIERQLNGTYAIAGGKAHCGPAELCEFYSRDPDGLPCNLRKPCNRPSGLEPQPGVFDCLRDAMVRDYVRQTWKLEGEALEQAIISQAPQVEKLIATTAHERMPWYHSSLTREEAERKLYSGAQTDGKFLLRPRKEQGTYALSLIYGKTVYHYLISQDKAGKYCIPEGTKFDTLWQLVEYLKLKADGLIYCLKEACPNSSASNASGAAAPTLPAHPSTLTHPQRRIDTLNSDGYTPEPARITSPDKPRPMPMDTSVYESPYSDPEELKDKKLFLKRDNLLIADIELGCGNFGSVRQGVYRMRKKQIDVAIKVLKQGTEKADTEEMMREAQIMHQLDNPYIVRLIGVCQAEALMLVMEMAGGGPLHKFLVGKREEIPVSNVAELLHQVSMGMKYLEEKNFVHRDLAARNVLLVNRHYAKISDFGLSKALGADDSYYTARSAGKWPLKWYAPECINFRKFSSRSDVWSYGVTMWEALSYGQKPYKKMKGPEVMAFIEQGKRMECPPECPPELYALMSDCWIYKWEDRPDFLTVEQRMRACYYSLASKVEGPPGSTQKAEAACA
T8 sequence (P06213 28-1382): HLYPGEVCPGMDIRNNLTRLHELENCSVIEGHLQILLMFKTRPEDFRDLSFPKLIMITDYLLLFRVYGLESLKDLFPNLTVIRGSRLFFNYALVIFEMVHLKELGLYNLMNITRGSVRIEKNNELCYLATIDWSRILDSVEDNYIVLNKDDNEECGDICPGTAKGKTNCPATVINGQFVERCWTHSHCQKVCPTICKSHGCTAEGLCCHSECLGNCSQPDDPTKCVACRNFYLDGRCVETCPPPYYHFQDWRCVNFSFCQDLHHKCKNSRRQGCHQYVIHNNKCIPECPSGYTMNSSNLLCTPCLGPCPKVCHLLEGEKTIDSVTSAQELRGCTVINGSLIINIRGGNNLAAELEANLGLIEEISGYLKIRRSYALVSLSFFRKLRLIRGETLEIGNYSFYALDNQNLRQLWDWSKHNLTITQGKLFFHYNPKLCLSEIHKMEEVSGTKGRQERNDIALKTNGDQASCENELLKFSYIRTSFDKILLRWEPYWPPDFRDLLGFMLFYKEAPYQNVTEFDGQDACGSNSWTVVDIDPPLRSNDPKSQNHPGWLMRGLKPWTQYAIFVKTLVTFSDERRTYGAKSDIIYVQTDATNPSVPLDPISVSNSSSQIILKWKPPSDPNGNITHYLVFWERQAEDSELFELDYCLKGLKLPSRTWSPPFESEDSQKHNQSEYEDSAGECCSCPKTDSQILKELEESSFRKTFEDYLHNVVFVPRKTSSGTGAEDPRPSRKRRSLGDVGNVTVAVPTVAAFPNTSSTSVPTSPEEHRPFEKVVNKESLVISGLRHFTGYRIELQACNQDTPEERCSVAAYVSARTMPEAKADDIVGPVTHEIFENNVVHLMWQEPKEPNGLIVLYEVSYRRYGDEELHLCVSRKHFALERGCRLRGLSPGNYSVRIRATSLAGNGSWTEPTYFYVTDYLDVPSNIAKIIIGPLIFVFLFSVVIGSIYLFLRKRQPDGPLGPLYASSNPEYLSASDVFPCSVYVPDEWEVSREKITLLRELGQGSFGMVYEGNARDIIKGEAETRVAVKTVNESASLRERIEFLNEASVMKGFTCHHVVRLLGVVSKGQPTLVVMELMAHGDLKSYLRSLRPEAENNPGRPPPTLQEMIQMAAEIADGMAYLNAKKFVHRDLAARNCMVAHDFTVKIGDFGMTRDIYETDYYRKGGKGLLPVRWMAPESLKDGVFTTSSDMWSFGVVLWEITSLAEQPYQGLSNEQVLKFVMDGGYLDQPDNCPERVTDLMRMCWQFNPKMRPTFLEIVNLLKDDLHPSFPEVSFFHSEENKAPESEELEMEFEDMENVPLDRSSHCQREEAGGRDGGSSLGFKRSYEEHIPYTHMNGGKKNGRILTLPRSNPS
T7 sequence (P49841 whole entry): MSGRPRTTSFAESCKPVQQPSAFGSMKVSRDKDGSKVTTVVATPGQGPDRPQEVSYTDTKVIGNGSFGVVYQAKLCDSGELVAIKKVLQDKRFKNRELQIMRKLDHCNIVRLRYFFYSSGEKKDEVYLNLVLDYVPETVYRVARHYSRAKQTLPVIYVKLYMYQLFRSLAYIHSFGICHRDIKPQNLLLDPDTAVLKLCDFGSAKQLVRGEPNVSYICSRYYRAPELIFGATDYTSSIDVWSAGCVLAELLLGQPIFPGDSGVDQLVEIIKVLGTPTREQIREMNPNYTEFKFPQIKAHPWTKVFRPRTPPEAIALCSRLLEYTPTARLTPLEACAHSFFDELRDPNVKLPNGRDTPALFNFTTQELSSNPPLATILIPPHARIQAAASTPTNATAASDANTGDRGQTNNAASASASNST

Turning to `COc1ccc2c(c1)N(CCN(C)C)/C(=C/C(C)=O)S2.O=C(O)/C=C/C(=O)O` [HTW_B_14 fumarate, (Z)-1-(3-(2-(dimethylamino)ethyl)-5-methoxybenzo[d]thiazol-2(3H)-ylidene)propan-2-one Fumarate Salt (1:1)], in data set [1], the “activation of 5-HT2C, IP-One agonist mode” value is “no activation”; the “antagonist activity at 5-HT2C, IP-One” value is given as “antagonist activity”; the “selectivity of antagonism, 5-HT2C versus 5-HT2A, IP-One” value was “moderate selectivity for antagonism of 5-HT2C”. In addition, the head-twitch response result with C57BL/6J mice [2] was “failed to produce a head-twitch response”. In addition, the “total distance traveled in open field chamber” value with C57BL/6J mice [3] is reported as “do not significantly affect the total distance traveled”.
Turning to `COc1ccc2c(c1)[nH]c1c(C)nccc12` [Harmine, harmine], the “Percent Control” value on ABL1-nonphosphorylated was 90%; at ADCK3, 88%; on AXL it was 82%; at BRAF it was 100%; on FLT3 it was 85%; at GSK3B it was 71%. Moreover, the “Percent Control” value on INSR is on record as 100%; at JNK3, 80%; on MEK2, 96%; at MET it was 100%; at MKNK1, 79%; on p38-beta, 85%. The “Percent Control” value was 74% at RIOK2, 72% in data set [4], 96% in data set [5] and 92% at ZAP70.
Consider `COc1ccc2c3ccnc(C)c3n(CCN(C)C)c2c1.O=C(O)/C=C/C(=O)O` [HTW_A_8 fumarate, 2-(7-methoxy-1-methyl-9H-pyrido[3,4-b]indol-9-yl)-N,N-dimethylethan-1-amine Fumarate Salt (2:3)], for which, in data set [1], the “activation of 5-HT2C, IP-One agonist mode” value is “no activation”; the “antagonist activity at 5-HT2C, IP-One” value is “antagonist activity”; the “selectivity of antagonism, 5-HT2C versus 5-HT2A, IP-One” value is “moderate selectivity for antagonism of 5-HT2C”. Besides, in the data set on C57BL/6J mice [2] (30 mg/kg pretreatment, 10 mg/kg 5-MeO-DMT), the “dampening of head-twitch response produced by 5-MeO-DMT” value is listed as “sufficient to dampen the head-twitch response”. For the same molecule, the head-twitch response result with C57BL/6J mice [2] is recorded as “failed to produce a head-twitch response”. For the same molecule, in the data set on C57BL/6J mice [3], the “total distance traveled in open field chamber” value is on record as “do not significantly affect the total distance traveled”.
